# Experimental data reported in article PMC6374431, “NMR Analysis on Molecular Interaction of Lignin with Amino Acid Residues of Carbohydrate-Binding Module from Trichoderma reesei Cel7A” (Scientific Reports, 2019).
# Biological target: T1, TrCBM1 (CBM1 of TrCel7A, cellobiohydrolase I) (Trichoderma reesei, UniProt P62694)
# T1 construct: gene cbh1; isolated C-terminal family 1 CBM (36 residues) plus residual residues at N- and C-termini from enterokinase and thrombin cleavage; His tag and GFP removed; E. coli BL21(DE3); 15N-labeled, mass 5255
# T1 sequence (P62694 478-513): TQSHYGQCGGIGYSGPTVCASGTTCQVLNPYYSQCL
# Test: NMR titration, chemical shift perturbation (1H-15N SOFAST-HMQC)
# Format: binding
# Conditions: 100 μM 15N-TrCBM1, 100 mM citric acid buffer pH 5.0, 10% D2O, 298 K; cellohexaose 700-5600 μM; flat plane surface and cleft
smiles,measurement,value
OC[C@H]1O[C@@H](O[C@H]2[C@H](O)[C@@H](O)[C@H](O[C@H]3[C@H](O)[C@@H](O)[C@H](O[C@H]4[C@H](O)[C@@H](O)[C@H](O[C@H]5[C@H](O)[C@@H](O)[C@H](O[C@H]6[C@H](O)[C@@H](O)C(O)O[C@@H]6CO)O[C@@H]5CO)O[C@@H]4CO)O[C@@H]3CO)O[C@@H]2CO)[C@H](O)[C@@H](O)[C@@H]1O (stereo partly shown) [cellohexaose],Δδ (CSP),The incremental addition of cellohexaose continuously increased Δδ.
